Results from patent publication US20230257710A1, “NATURAL KILLER CELL HAVING CONTROLLED ONCOLOGY-RELEATED GENE EXPRESSION, AND USE THEREOF” (SUNGKWANG MEDICAL FOUNDATION, priority 2020, published 2023).

Tested on: A2780cis xenograft
Format: in vivo, NSG mice
Protocol: The efficacy was evaluated by confirming the growth inhibitory effect of natural killer cells (pNK) cultured by the culture method according to one aspect as an immuno-anticancer agent. An A2780cis xenograft mouse model was prepared by subcutaneously injecting the […] ovarian cancer cell line A2780cis into the fat pad of 7-week-old NSG mice in an amount of 2×10^6 (cells). After ovarian cancer cell lines were injected, mice with tumors were randomly grouped on day 3: a group treated with intraperitoneal injection of cisplatin at 1 mg/kg, once/week; a group treated with intravenous injected of natural killer cells according to one aspect in the number of 1×10^7 (cells), 2 times/week; and a control group treated with the injection of PBS (FIG. 8). After injection of the ovarian cancer cell line, tumor size and body weight were measured daily.

N.N.[Cl][Pt][Cl] [cisplatin]
cancer cell growth inhibitory effect (compared to the control group (PBS), A2780cis xenograft NSG mice): about 55%
change in body weight (mouse, in vivo): no significant change in body weight
